Each structure is given as a SMILES string. In brackets after ≈: the same amount, converted by molar mass.

For the series the following is noted: buffer; pH 7.4; 200.0 µM.
For the compound `O=C1CN(C(=O)COC(=O)/C=C/c2ccc(F)cc2)c2ccccc2N1`, the solubility (kinetic) worked out at 4.6 µg/mL (≈ 13 µM).

Compound `COc1ccc(NC(=O)CO/N=C2/CCCc3nonc32)c(OC)c1` returned a solubility (kinetic) above 52 µg/mL.

In turn, `Cc1cc(Nc2ccc(N3CCOCC3)cc2)c2cccc(C)c2n1.Cl` gave a solubility (kinetic) of 55 µg/mL.

On to `Cc1cccc(NC(=O)N2CCc3ccccc3C2)c1C`, for which the kinetic solubility worked out at 6.5 µg/mL (≈ 23.2 µM).

Turning to `COc1ccccc1CNC(=O)c1[nH]c(C)c(C(C)=O)c1C`, the solubility (kinetic) came out at 13.3 µg/mL (≈ 44.3 µM).

In turn, `Cc1cc(=O)oc2c(C(=O)c3ccccc3)c(OCC(N)=O)ccc12` displayed a solubility (kinetic) of 5.6 µg/mL (≈ 16.6 µM).

On to `N#Cc1cc2ccccc2nc1SCC(=O)NC1CC1`, for which the kinetic solubility came to 3.2 µg/mL (≈ 11.3 µM).

Take `COC(=O)c1sccc1NC(=S)N(C)C1CCCCC1`: the kinetic solubility came to 0.4 µg/mL (≈ 1.28 µM).

As to `Cc1nonc1NC(=O)CSc1nnc(N)s1`, the kinetic solubility was above 40.8 µg/mL.

Regarding `O=C(CNC(=O)c1ccccc1F)N/N=C/c1cccs1`, the kinetic solubility was above 45.8 µg/mL.

As for `O=C1CNC(=S)N1Cc1ccccc1Cl`, the kinetic solubility is above 36.1 µg/mL.

On to `CCn1c(OC)nc2c1c(=O)n(C)c(=O)n2C`, for which the solubility (kinetic) is above 35.7 µg/mL.

With `CC(Oc1ccc([N+](=O)[O-])cc1)C(=O)NCC1CCCO1` (stereo not drawn), the kinetic solubility is above 44.1 µg/mL.

In turn, `O=C(CSc1ccccc1)Nc1ccc(N2CCOCC2)c(F)c1` yielded a kinetic solubility of 2.7 µg/mL (≈ 7.79 µM).

In turn, `Cc1ccc(NC(=O)COC(=O)c2ccco2)cc1C` gave a solubility (kinetic) of 23.3 µg/mL (≈ 85.3 µM).

On to `O=C(OCC(=O)N1CCc2ccccc21)c1ccc([N+](=O)[O-])o1`, for which the solubility (kinetic) turned out to be 8.2 µg/mL (≈ 25.9 µM).

In the case of `CC1(C)CC(=O)c2sc(NC(=O)c3ccccc3)nc2C1`, the solubility (kinetic) came to 22.6 µg/mL (≈ 75.2 µM).

In turn, `COc1ccc(CCNC(=O)COc2ccc3c(C)cc(=O)oc3c2)cc1` showed a kinetic solubility of 6 µg/mL (≈ 16.3 µM). Against the preceding compound, the solubility kinetic is about 3.8-fold lower.

In the case of `CC1CN(S(=O)(=O)c2cccc(C(=O)NCCc3ccc(S(N)(=O)=O)cc3)c2)CC(C)O1` (stereo not drawn), the solubility (kinetic) was above 72.2 µg/mL.

With `CC(C)(C)C1CCC(OC(=O)CN2CCCCC2)CC1` (stereo not drawn), the solubility (kinetic) is 2.4 µg/mL (≈ 8.53 µM).

Take `CC(=O)c1sc(=S)n(Cc2ccccc2)c1C`: the kinetic solubility was 38 µg/mL (≈ 144 µM).

In the case of `CS(=O)(=O)N(CC(=O)N1CCCC1)Cc1ccc(F)cc1`, the kinetic solubility is above 47.2 µg/mL.

Regarding `CC1=NC(C)(C)Cc2cc(C)c(C)cc21.Cl`, the kinetic solubility was above 35.7 µg/mL.

In the case of `O=C(COC(=O)C1CC1)NCc1ccc(Cl)cc1Cl`, the solubility (kinetic) worked out at 41.9 µg/mL (≈ 139 µM).

Take `Nc1nc(Cl)c(C=O)c(N2CCCCC2)n1`: the solubility (kinetic) worked out at 34.6 µg/mL (≈ 144 µM).

The compound `CN(C)CCNC(=O)Nc1ccc([N+](=O)[O-])cc1` yielded a solubility (kinetic) above 37.8 µg/mL.

For `Cl.Nc1ccc(-c2nc3c(ccc4ccccc43)[nH]2)cc1`, the kinetic solubility was above 44.4 µg/mL.

As for `CCOc1ccc2nc(N3C(=O)CNC3=S)sc2c1`, the kinetic solubility was 2.5 µg/mL (≈ 8.52 µM).

Compound `CCOc1ccccc1C(=O)NC(C)CCc1ccccc1` (stereo not drawn) registered a solubility (kinetic) of 22.2 µg/mL (≈ 74.6 µM). This solubility kinetic lies about 8.9-fold higher than the previous one.

Compound `O=C(O)CCCC(=O)Nc1ccc(Oc2cccc(C(F)(F)F)c2)nc1` had a solubility (kinetic) above 55.2 µg/mL.

On to `O=C(O)CSCC(=O)NCc1csc2ccc(Cl)cc12`, for which the solubility (kinetic) stood at 37.9 µg/mL (≈ 115 µM).

In turn, `O=C(c1ccco1)N1CCN(S(=O)(=O)c2cc(Cl)ccc2Cl)CC1` had a kinetic solubility of 18.1 µg/mL (≈ 46.5 µM).

`COc1ccc(S(=O)(=O)N2CCN(C)CC2)c(C)c1` returned a solubility (kinetic) above 42.7 µg/mL.

Turning to `O=C(CCCl)N1CCCC2(CCCCC2)C1`, the solubility (kinetic) stood at 30.1 µg/mL (≈ 123 µM).

The compound `Cc1ccc(CSCC(=O)Nc2ccccc2)cc1` gave a kinetic solubility of 33.4 µg/mL (≈ 123 µM).

Compound `Nc1ncc(S(=O)(=O)c2ccc(Cl)cc2)c(N)n1` yielded a solubility (kinetic) of 31.4 µg/mL (≈ 110 µM).

Regarding `Clc1nc(Cl)nc(NCCC2=CCCCC2)n1`, the solubility (kinetic) was above 41 µg/mL.

`O=S1(=O)C=C(SCc2ccc(F)cc2)Nc2ccccc21` showed a kinetic solubility of 22.5 µg/mL (≈ 70 µM).

`O=C(NCCSCc1c(F)cccc1Cl)Nc1ccccc1` displayed a solubility (kinetic) of 2.5 µg/mL (≈ 7.38 µM).

`Cc1cccc(C(=O)OCC(=O)N2CC(C)OC(C)C2)c1C` (stereo not drawn) displayed a solubility (kinetic) above 45.8 µg/mL.

`C=Cn1ccnc1P(O)(=S)c1nc(C)c(CCOC(C)=O)s1` (stereo not drawn): the kinetic solubility stood at 43.1 µg/mL (≈ 121 µM).

With `O=[N+]([O-])c1ccccc1S(=O)(=O)N1CCCc2ccccc21`, the solubility (kinetic) turned out to be 10.9 µg/mL (≈ 34.2 µM).

`O=C(CN1CCN(C(=O)c2ccco2)CC1)Nc1ccccc1` registered a kinetic solubility above 47 µg/mL.

For `COc1ccc(C2NC(=O)CCC2[N+](=O)[O-])cc1` (stereo not drawn), the kinetic solubility was above 37.5 µg/mL.

As to `CC(=O)N1CCC(c2c[nH]c3ccccc23)CC1`, the solubility (kinetic) was above 36.3 µg/mL.

Compound `S=C(c1ccccc1)N1CCSCC1` had a solubility (kinetic) above 33.5 µg/mL.

The compound `O=C(NCc1ccc(Cl)cc1)c1cc(=O)[nH]c2ccccc12` had a kinetic solubility of 1.6 µg/mL (≈ 5.12 µM).

Turning to `Cc1cccc(C)c1NC(=O)CNCC(=O)N(C)C`, the solubility (kinetic) is above 39.5 µg/mL.

`CCCOc1ccc(Cn2c(=O)oc3ccc(C)cc32)cc1`: the kinetic solubility is below 0.6 µg/mL.

In the case of `Cc1c(-c2csc(N)n2)cnn1C`, the kinetic solubility was above 29.1 µg/mL.

Compound `COn1c(-c2ccccc2)nc2ncccc21` gave a kinetic solubility above 33.8 µg/mL.

As to `Cc1noc(NS(=O)(=O)c2ccc(NC(=O)CC(C)C)cc2)c1C`, the kinetic solubility is above 52.7 µg/mL.

For the compound `CCc1cc(C(=O)Nc2ccccc2N2CCOCC2)sc1C`, the solubility (kinetic) stood at 2.2 µg/mL (≈ 6.66 µM).

One may read the solubility (kinetic) as the concentration staying in solution when a stock, usually in DMSO, is diluted into the medium.

The record behind these values is PubChem BioAssay AID1996.
